Here are results for three molecules from patent US12016942B2, “Potassium hydrogen salts of alkylhydroxamates and compositions comprising the same” (Inolex Investment Corporation, priority 2021, dated 2024).

The conditions of data set [1]: cited from earlier work.
Data set [2] in a line: Solution pH of alkali metal salts of caprylhydroxamic acid in deionized water. The data set is classed as physicochemical. As to conditions: for Solution pH Difference: NaCH minus KH(CH)2. An excerpt: In some cases, the pH adjuster brings the aqueous formulation including potassium hydrogen alkylhydroxamate salts to a lower pH value than if no pH adjuster were employed in the compound. The amount of pH adjuster will depend upon the concentration of the potassium hydrogen alkylhydroxamate salts in aqueous solution. […] […] Target pH levels for the formulations as disclosed herein, e.g., for personal care products and the like, are less than pH 8. Minimal additions of the pH adjuster are required when using potassium hydrogen alkylhydroxamate salt compounds as described herein to achieve the desired pH less than 8.

The nature of data set [3]: Titration of aqueous solutions with 0.1 N HCl. It counts as physicochemical. The following applies: for titration endpoint: 0.24 wt % aqueous solution, 0.1 N HCl. How it is done:
Aqueous solutions (0.24 wt %) of KH(CH)2 and NaCH were prepared by dissolving the respective compounds of Example 1 and Comparative Example 1 in deionized water. The solutions were titrated with 0.1 N HCl solution using a Metrohm autotitrator.

Turning to `CCCCCCCC(=O)NO` [CHA, caprylhydroxamic acid], the pKa result in data set [1] was “≈ 9.4”.

Take `CCCCCCCC(=O)N[O-].O.[Na+]` [Comparative Example 1, sodium octanohydroxamate monohydrate, reference compound]: the “Solution pH” value amounted to 10.26 in data set [2] (0.15 % in deionized water), 10.85 in data set [2] (0.25 % in deionized water), 10.95 in data set [2] (0.50 % in deionized water) and 11.10 in data set [2] (1.00 % in deionized water). In addition, in data set [2], the “pH value in a 1% aqueous solution” value is on record as 11.0-11.5. This molecule gave a titration endpoint in data set [3] of 18.4 mL.

Turning to `CCCCCCCC(=O)NO.[K]` [Example 1, potassium hydrogen caprylhydroxamate], the “Solution pH” value came to 9.35 in data set [2] (0.15 % in deionized water), 9.64 in data set [2] (0.25 % in deionized water), 9.60 in data set [2] (0.50 % in deionized water) and 9.58 in data set [2] (1.00 % in deionized water). In addition, the “Solution pH Difference” value in data set [2] (0.15 %) is 0.91; in data set [2] (0.25 %) it was 1.21; in data set [2] (0.50 %), 1.35; in data set [2] (1.00 %), 1.52. Besides, the “pH value in a 1% aqueous solution” value in data set [2] is reported as 9.0-10.0. The same molecule showed a titration endpoint in data set [3] of 10.7 mL. Moreover, the “less acid required to neutralize vs NaCH solution” value in data set [3] (identical concentration 0.24 wt %) is on record as “approximately 42%”.
